Structures can show the parent of a compound that is named as a salt.

Sequence of human, KCNT1 (Q5JUK3 whole entry): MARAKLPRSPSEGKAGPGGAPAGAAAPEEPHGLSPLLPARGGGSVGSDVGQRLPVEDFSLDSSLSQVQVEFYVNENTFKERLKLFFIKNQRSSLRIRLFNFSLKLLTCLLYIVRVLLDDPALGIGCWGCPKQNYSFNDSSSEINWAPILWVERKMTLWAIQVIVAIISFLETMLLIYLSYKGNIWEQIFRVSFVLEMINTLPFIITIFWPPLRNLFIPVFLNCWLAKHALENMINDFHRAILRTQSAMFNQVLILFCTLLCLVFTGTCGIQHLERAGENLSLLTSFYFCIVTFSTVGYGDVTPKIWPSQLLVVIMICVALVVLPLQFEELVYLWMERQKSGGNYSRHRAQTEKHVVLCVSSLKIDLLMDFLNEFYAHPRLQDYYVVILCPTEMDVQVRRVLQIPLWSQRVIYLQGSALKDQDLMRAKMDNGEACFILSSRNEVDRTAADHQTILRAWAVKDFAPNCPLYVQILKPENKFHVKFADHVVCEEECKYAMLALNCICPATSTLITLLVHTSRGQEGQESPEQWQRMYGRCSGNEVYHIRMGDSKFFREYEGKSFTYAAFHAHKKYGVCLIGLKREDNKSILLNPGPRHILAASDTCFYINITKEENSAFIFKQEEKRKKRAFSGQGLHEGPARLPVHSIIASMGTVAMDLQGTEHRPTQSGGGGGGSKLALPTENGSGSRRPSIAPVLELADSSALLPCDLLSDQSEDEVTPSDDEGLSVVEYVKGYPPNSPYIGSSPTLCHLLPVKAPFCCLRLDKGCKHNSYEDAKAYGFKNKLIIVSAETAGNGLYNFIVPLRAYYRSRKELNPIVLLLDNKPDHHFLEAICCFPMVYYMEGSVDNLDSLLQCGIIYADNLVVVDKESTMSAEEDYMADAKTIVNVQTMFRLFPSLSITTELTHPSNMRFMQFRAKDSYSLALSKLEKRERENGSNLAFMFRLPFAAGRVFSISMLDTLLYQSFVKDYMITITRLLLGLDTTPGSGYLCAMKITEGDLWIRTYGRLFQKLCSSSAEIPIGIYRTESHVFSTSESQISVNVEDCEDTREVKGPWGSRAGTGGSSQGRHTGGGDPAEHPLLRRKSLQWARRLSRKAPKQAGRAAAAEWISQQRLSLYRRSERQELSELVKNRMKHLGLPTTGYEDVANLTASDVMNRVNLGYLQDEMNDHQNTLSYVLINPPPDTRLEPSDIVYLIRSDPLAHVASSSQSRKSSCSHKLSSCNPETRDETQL

The target of the experiment is human, KCNT1 (Homo sapiens (Human), UniProt Q5JUK3). Put plainly: FLIPR Tl/K Flux Assay. Type of experiment: cell-based. The conditions noted are these: HEK293 cells stably expressing human KCNT1; Tl+ flux stimulated with EC80 of agonist Loxapine. In outline:
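Inhibition values come from a Hill-equation fit of % inhibition versus log concentration, using normalized fluorescence (Fmax/Fmin) over a 160 s read. The read followed stimulation with Tl+ plus EC80 agonist loxapine after 30 min compound pre-incubation at 25 °C. Cells were KCNT1-expressing HEK293, dye-loaded 1 h in pH 7.4 HEPES/HBSS with 5 mM probenecid.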
A word on the IC50: it is the concentration needed to halve the response being measured. Higher therefore signals a need for much substance. For `O=C(N[C@H]1CCn2nc(-c3cc(C(F)(F)F)ncc3F)cc21)C12CC(C(F)F)(C1)C2` [Compound I-527a, (S)-3-(Difluoromethyl)-N-(2-(5-fluoro-2-(trifluoromethyl)pyridin-4-yl)-5,6-dihydro-4H-pyrrolo[1,2-b]pyrazol-4-yl)bicyclo[1.1.1]pentane-1-carboxamide], the IC50 was less than 250 nM.
`COc1cc(-c2cc3n(n2)CC[C@H]3NC(=O)c2cc(F)cc(F)c2)ccn1` [Compound I-447b] showed an IC50 of less than 250 nM.
The figure for `N#Cc1cccc(C(=O)NC2CCCn3cc(-c4ccnc(C(F)(F)F)c4)cc32)c1` (single isomer, unassigned) [I-309*] is less than 250 nM; for `Cn1nc(C(F)(F)F)cc1C(=O)NC1CCCc2nn(-c3ccc(=O)n(C)c3)cc21` (racemic) [Compound I-39, (rac)-1-Methyl-N-(2-(1-methyl-6-oxo-1,6-dihydropyridin-3-yl)-4,5,6,7-tetrahydro-2H-indazol-4-yl)-3-(trifluoromethyl)-1H-pyrazole-5-carboxamide] it is greater than 1000 nM; for `COc1cc(-c2nc3n(n2)CCC[C@@H]3NC(=O)c2cc(C(F)(F)F)nn2C)ccn1` [Compound I-260a, (S)—N-(2-(2-Methoxypyridin-4-yl)-5,6,7,8-tetrahydro-[1,2,4]triazolo[1,5-a]pyridin-8-yl)-1-methyl-3-(trifluoromethyl)-1H-pyrazole-5-carboxamide] it is 250 to 500 nM.
The same measure for `Cc1ccn2ncc(C(=O)N[C@H]3CCCn4nc(-c5ccnc(C(F)(F)F)c5)cc43)c2n1` [Compound I-440a]: 500 to 1000 nM; for `Cc1cc(C#N)cc(C(=O)N[C@H]2CCCn3nc(-c4ccnc(C5CC5)c4)cc32)c1` [Compound I-281a, (S)-3-Cyano-N-(2-(2-cyclopropylpyridin-4-yl)-4,5,6,7-tetrahydropyrazolo[1,5-a]pyridin-4-yl)-5-methylbenzamide TFA salt]: less than 250 nM; for “(S)-3-Chloro-5-methyl-N-(2-(2-(trifluoromethyl)pyridin-4-yl)-2,4,5,6-tetrahydrocyclopenta[c]pyrazol-4-yl)benzamide [Compound I-129a]”: less than 250 nM.
`O=C(N[C@H]1CCn2nc(-c3cc(C(F)(F)F)ncc3F)cc21)C12CC(C(F)(F)F)(C1)C2` [Compound I-493a, (S)-N-(2-(5-Fluoro-2-(trifluoromethyl)pyridin-4-yl)-5,6-dihydro-4H-pyrrolo[1,2-b]pyrazol-4-yl)-3-(trifluoromethyl)bicyclo[1.1.1]pentane-1-carboxamide] had an IC50 of less than 250 nM.
The figure for `O=C(N[C@H]1CCn2nc(-c3ccnc(C(F)(F)F)c3)cc21)c1cccc(C(F)(F)F)c1` [Compound I-289a, (S)-3-(Trifluoromethyl)-N-(2-(2-(trifluoromethyl)pyridin-4-yl)-5,6-dihydro-4H-pyrrolo[1,2-b]pyrazol-4-yl)benzamide] is less than 250 nM; for `O=C(N[C@H]1CCCCc2nn(-c3ccnc(C4CC4)c3)cc21)c1cc(Cl)cc(C(F)(F)F)c1` [Compound I-110a] it is less than 250 nM; for `COc1cc(-c2nc3c(o2)[C@@H](NC(=O)c2cccc(OC(F)(F)F)c2)CCC3)ccn1` [Compound I-151a, (S)-N-(2-(2-Methoxypyridin-4-yl)-4,5,6,7-tetrahydrobenzo[d]oxazol-7-yl)-3-(trifluoromethoxy)benzamide] it is less than 250 nM.
The figure for `CCOc1cc(-n2cc3c(n2)CCCCC3NC(=O)c2cccc(C(F)(F)F)c2)ccn1` (racemic) [Compound I-61, (rac)-N-(2-(2-Ethoxypyridin-4-yl)-2,4,5,6,7,8-hexahydrocyclohepta[c]pyrazol-4-yl)-3-(trifluoromethyl)benzamide] is less than 250 nM; for `COc1cc(-c2cc3n(n2)CCC[C@@H]3NC(=O)c2cccc(C(F)(F)F)c2)ccn1` [Compound I-355a] it is less than 250 nM.
Molecule `COc1cc(-c2cc3n(n2)CCC[C@@H]3NC(=O)c2cccc(C#N)c2)c(Cl)cn1` [Compound I-239a, (S)-N-(2-(5-Chloro-2-methoxypyridin-4-yl)-4,5,6,7-tetrahydropyrazolo[1,5-a]pyridin-4-yl)-3-cyanobenzamide] displayed an IC50 of less than 250 nM.
The figure for `Cc1cc(C(=O)N[C@@H]2CCc3nn(-c4ccnc(C(F)(F)F)c4)cc32)cc(C(F)(F)F)c1` [Compound I-373b] is less than 250 nM.
With `O=C(N[C@H]1CCCn2nc(-c3ccnc(C(F)(F)F)c3)cc21)c1cn(C2CC2)nc1C(F)(F)F` [Compound I-398a], the IC50 was less than 250 nM.
The same measure for `Cc1cc(C#N)cc(C(=O)N[C@H]2CCn3nc(-c4cc(C(F)(F)F)ncc4F)cc32)c1` [Compound I-140a]: less than 250 nM.
In turn, `O=C(N[C@H]1CCCn2nc(-c3ccnc(C(F)(F)F)c3)cc21)c1ccc2ccnn2c1` [Compound I-400a] registered an IC50 of less than 250 nM.
`COc1cc(-c2cc3n(n2)CC[C@H]3NC(=O)c2cc(C(F)(F)F)nn2C)c(C(F)(F)F)cn1` [Compound I-172b] came in with an IC50 greater than 1000 nM.
The figure for `O=C(N[C@@H]1CCCCc2nn(-c3ccnc(C(F)(F)F)c3)cc21)c1cc(Cl)cc(C(F)(F)F)c1` [Compound I-109b] is greater than 1000 nM; for `Cn1nc(C(F)(F)F)nc1C(=O)N[C@H]1CCn2nc(-c3cc(C4CC4)ncc3F)cc21` [Compound I-483a, (S)—N-(2-(2-Cyclopropyl-5-fluoropyridin-4-yl)-5,6-dihydro-4H-pyrrolo[1,2-b]pyrazol-4-yl)-1-methyl-3-(trifluoromethyl)-1H-1,2,4-triazole-5-carboxamide] it is less than 250 nM; for `CC(F)(F)c1cc(-n2cc3c(n2)CC[C@@H]3NC(=O)c2cccc(C#N)c2)ccn1` [Compound I-274a, (S)-3-Cyano-N-(2-(2-(1,1-difluoroethyl)pyridin-4-yl)-2,4,5,6-tetrahydrocyclopenta[c]pyrazol-4-yl)benzamide] it is less than 250 nM.
As for `CC(F)(F)c1cc(-c2nc3c(o2)CCC[C@@H]3NC(=O)c2cn(C(F)(F)F)nc2C(F)(F)F)ccn1` [Compound I-545a, (S)—N-(2-(2-(1,1-difluoroethyl)pyridin-4-yl)-4,5,6,7-tetrahydrobenzo[d]oxazol-4-yl)-1,3-bis(trifluoromethyl)-1H-pyrazole-4-carboxamide], the IC50 is less than 250 nM.
The figure for `COc1cc(-c2cc3n(n2)CC[C@@H]3NC(=O)c2nc(C)nn2C)ccn1` [Compound I-230a, (S)-N-(2-(2-Methoxypyridin-4-yl)-5,6-dihydro-4H-pyrrolo[1,2-b]pyrazol-4-yl)-1,3-dimethyl-1H-1,2,4-triazole-5-carboxamide] is greater than 1000 nM; for `O=C(N[C@H]1CCCc2oc(-c3cc(C4CC4)ncc3F)nc21)c1cncc(C(F)(F)F)n1` [Compound I-208a, (S)-N-(2-(2-Cyclopropyl-5-fluoropyridin-4-yl)-4,5,6,7-tetrahydrobenzo[d]oxazol-4-yl)-6-(trifluoromethyl)pyrazine-2-carboxamide] it is less than 250 nM; for `N#Cc1cc(C(=O)N[C@H]2CCCn3nc(-c4ccnc(C(F)(F)F)c4)cc32)cc(C2CC2)c1` [Compound I-333a, (S)-3-Cyano-5-cyclopropyl-N-(2-(2-(trifluoromethyl)pyridin-4-yl)-4,5,6,7-tetrahydropyrazolo[1,5-a]pyridin-4-yl)benzamide] it is less than 250 nM.
Molecule `Cn1nc(C(F)(F)F)cc1C(=O)N[C@H]1CCCc2nc(-c3cc(C(F)(F)F)ncc3F)oc21` [Compound I-514a, (S)—N-(2-(5-Fluoro-2-(trifluoromethyl)pyridin-4-yl)-4,5,6,7-tetrahydrobenzo[d]oxazol-7-yl)-1-methyl-3-(trifluoromethyl)-1H-pyrazole-5-carboxamide] displayed an IC50 of less than 250 nM.
The same measure for `Cc1nn2ccccc2c1C(=O)N[C@H]1CCCn2nc(-c3ccnc(C(F)(F)F)c3)cc21` [Compound I-434a]: less than 250 nM.
`COC12CC(C(=O)N[C@H]3CCn4nc(-c5cc(C(F)(F)F)ncc5F)cc43)(C1)C2` [Compound I-525a, (S)-N-(2-(5-Fluoro-2-(trifluoromethyl)pyridin-4-yl)-5,6-dihydro-4H-pyrrolo[1,2-b]pyrazol-4-yl)-3-methoxybicyclo[1.1.1]pentane-1-carboxamide] came in with an IC50 of less than 250 nM.
The figure for `Cn1nc(C(F)(F)F)cc1C(=O)N[C@H]1CCc2cnc(-c3ccnc(C(F)(F)F)c3)nc21` [Compound I-46a, (S)-1-Methyl-3-(trifluoromethyl)-N-(2-(2-(trifluoromethyl)pyridin-4-yl)-6,7-dihydro-5H-cyclopenta[d]pyrimidin-7-yl)-1H-pyrazole-5-carboxamide] is 250 to 500 nM; for `Cn1nc(C(F)F)nc1C(=O)N[C@H]1CCn2nc(-c3ccnc(C(F)(F)F)c3)cc21` [Compound I-155a, (S)-3-(Difluoromethyl)-1-methyl-N-(2-(2-(trifluoromethyl)pyridin-4-yl)-5,6-dihydro-4H-pyrrolo[1,2-b]pyrazol-4-yl)-1H-1,2,4-triazole-5-carboxamide] it is less than 250 nM; for `COc1cc(-c2cc3n(n2)CCC[C@@H]3NC(=O)c2cc(F)cc(C(F)(F)F)c2)ccn1` [Compound I-287a, (S)-3-Fluoro-N-(2-(2-methoxypyridin-4-yl)-4,5,6,7-tetrahydropyrazolo[1,5-a]pyridin-4-yl)-5-(trifluoromethyl)benzamide] it is less than 250 nM.
The same measure for `CC(C)(O)c1cc(F)cc(C(=O)N[C@H]2CCc3nn(-c4ccnc(C(F)(F)F)c4)cc32)c1` [Compound I-563a, (S)-3-Fluoro-5-(2-hydroxypropan-2-yl)-N-(2-(2-(trifluoromethyl)pyridin-4-yl)-2,4,5,6-tetrahydrocyclopenta[c]pyrazol-4-yl)benzamide]: less than 250 nM; for `Cc1cnc(C(F)(F)F)cc1-n1cc2c(n1)CC[C@@H]2NC(=O)c1cc(C(F)(F)F)nn1C` [Compound I-304a, (S)-1-Methyl-N-(2-(5-methyl-2-(trifluoromethyl)pyridin-4-yl)-2,4,5,6-tetrahydrocyclopenta[c]pyrazol-4-yl)-3-(trifluoromethyl)-1H-pyrazole-5-carboxamide]: less than 250 nM.

The record behind these values is patent publication US20250313548A1 (Actio Biosciences, Inc., priority 2023, published 2025).
